For this assay, the system named is Leishmania infantum. The experiment in a line: Inhibitory activity against Leishmania infantum parasite L1 strain. Format: functional, organism-based.

Bounds are passed on as bounds.

As to `C[C@@H]1[C@H](O)[C@@H](C)/C=C/C=C/C=C/C=C/C=C/C=C/C=C/[C@H](O[C@@H]2O[C@H](C)[C@@H](O)[C@H](N)[C@@H]2O)C[C@@H]2O[C@](O)(C[C@@H](O)C[C@@H](O)[C@H](O)CC[C@@H](O)C[C@@H](O)CC(=O)O[C@H]1C)C[C@H](O)[C@H]2C(=O)O` [AMPHOTERICIN B], the concentration for half-maximal inhibition (IC50) (in general, the concentration that gives 50% inhibition) is under 6.25 µM.

Source of the values: ChEMBL document CHEMBL1136539, “N-ferrocenylmethyl, N'-methyl-2-substituted benzimidazolium iodide salts with in vitro activity against the Leishmania infantum parasite strain L1” (Bioorg Med Chem Lett, 2003).
